Test results as given in patent US20240376111A1, “COMPOSITIONS AND METHODS OF USING THE SAME FOR TREATMENT OF NEURODEGENERATIVE AND MITOCHONDRIAL DISEASE” (Mitokinin, Inc., priority 2021, published 2024).
Values joined by “and” are separate entries in the source; they are usually repeats but may differ in a detail not shown here. Identical values can stand only once. Like-named read-outs stand apart in the source and are kept apart here.

Key:
[1] = test system: HeLa cells expressing mt-Keima and YFP-Parkin (HeLa MKYP); experiment: Human mt-Keima mitophagy assay; format: cell-based; conditions: Homo sapiens
Procedure: Briefly, HeLa cells expressing mt-Keima and YFP-Parkin (HeLa MKYP) were plated at 10,000 cells/well in 96 well plates along with compounds at various concentrations. Following 16 hrs of incubation, cells were treated with 1 uM FCCP/oligomycin for 6 hours, then analyzed via FACS for the presence of mitochondria in lysosomes (as determined by an emissions spectrum shift from the pH-sensitive mt-Keima tag).

[2] = test system: SKOV3 cells; experiment: In vitro mitosafety (glucose/galactose) assay; conditions: highest mito-safe dose = highest concentration at which gal/glc>0.80 (IC20) in SKOV3 cells, divided by mt-Keima EC50
Procedure: Briefly, SKOV3 cells (ATCC HTB-77) were plated in DMEM (Corning 10-013-CV) medium containing 25 mM glucose or DMEM with no glucose (Gibco 11966-025) supplemented with 10 mM galactose at 9,000 cells/well in 96 well plates (Corning costar 3610). 24 hrs later, compounds, in DMSO, were added at various concentrations to a final 0.1% DMSO for all wells. […] After a 15 minute incubation cellular ATP levels were read out using a Promega GloMax® DiscoverMicroplate Reader.
The ratio of relative CellTiter-Glo values from cells grown in galactose to cells grown in glucose was determined (gal/glc ratio). The gal/glc ratio vs concentration is then graphed, and non-linear regression is used to find the highest concentration of MTK compound at which gal/glc>0.80 (the “highest mito-safe dose”, or IC20).

[3] = HeLa MKYP cells, 16 hrs with compound, then 1 uM FCCP/oligomycin for 6 hours, FACS, read-out: EC50 in HeLa mt-Keima Mitophagy Assay

| SMILES | EC50 [1, 3] [nM] | EC50 ([1]; HeLa, refers to the table, read-out: EC50) [nM] | Mito-Safety Index (highest mito-safe dose/mt-Keima EC50) [2] |
| --- | --- | --- | --- |
| CC(C)(C#N)CO[C@H]1COc2ccccc2[C@@H]1Nc1ncnc2[nH]c(C(F)(F)F)cc12 [EP-0043230, 2,2-dimethyl-3-[(3R,4S)-4-[[6-(trifluoromethyl)-7H-pyrrolo[2,3-d]pyrimidin-4-yl]amino]chroman-3-yl]oxy-propanenitrile] | 417 |  | 43.73 |
| CCO[C@H]1COc2ccccc2[C@@H]1Nc1ncnc2[nH]c(C(F)(F)F)cc12 [EP-0043811, N-((3R,4S)-3-ethoxychroman-4-yl)-6-(trifluoromethyl)-7H-pyrrolo[2,3-d]pyrimidin-4-amine] | 930 |  | 26.9 |
| CC(C)(F)CO[C@H]1COc2ccccc2[C@@H]1Nc1ncnc2[nH]c(C(F)(F)F)cc12 [EP-0043741, N-[(3R,4S)-3-(2-fluoro-2-methyl-propoxy)chroman-4-yl]-6-(trifluoromethyl)-7H-pyrrolo[2,3-d]pyrimidin-4-amine] | 510 |  | 49.0 |
| FC(F)(F)c1cc2c(N[C@H]3c4ccccc4OC[C@@H]3OCC3CC3)ncnc2[nH]1 [EP-0043810, N-((3R,4S)-3-(cyclopropylmethoxy)chroman-4-yl)-6-(trifluoromethyl)-7H-pyrrolo[2,3-d]pyrimidin-4-amine] | 540 |  | 46.3 |
| FC(F)(F)c1cc2c(NC3CC4(CCCC4)Oc4ccccc43)ncnc2[nH]1 (stereo not drawn) [EP-0041220] | 608 |  | 41.11 |
| FC(F)(F)c1cc2c(N[C@H]3CC4(CCCC4)Oc4ccccc43)ncnc2[nH]1 (single isomer, unassigned) [EP-0041356, N-spiro[chromane-2,1′-cyclopentane]-4-yl-6-(trifluoromethyl)-7H-pyrrolo[2,3-d]pyrimidin-4-amine] | 414 |  | 60.24 |
| FC(F)(F)c1cc2c(N[C@H]3c4ccccc4OC[C@@H]3OCC3CCOC3)ncnc2[nH]1 (stereo partly drawn) [EP-0043842, N-((3R,4S)-3-((tetrahydrofuran-3-yl)methoxy)chroman-4-yl)-6-(trifluoromethyl)-7H-pyrrolo[2,3-d]pyrimidin-4-amine] | 620 |  | 38.4 |
| CC(C)(O)CO[C@H]1COc2ccccc2[C@@H]1Nc1ncnc2[nH]c(C(F)(F)F)cc12 [EP-0042979, 2-methyl-1-[(3R,4S)-4-[[6-(trifluoromethyl)-7H-pyrrolo[2,3-d]pyrimidin-4-yl]amino]chroman-3-yl]oxy-propan-2-ol] | 468 |  | 53.45 |
| CC(C)CO[C@H]1COc2ccccc2[C@@H]1Nc1ncnc2[nH]c(C(F)(F)F)cc12 [EP-0043813, N-((3R,4S)-3-isobutoxychroman-4-yl)-6-(trifluoromethyl)-7H-pyrrolo[2,3-d]pyrimidin-4-amine] | 170 |  | 147.1 |

Now from value to compound, other results behind:

| EC50 [1, 3] [nM] | EC50 ([1]; HeLa, refers to the table, read-out: EC50) [nM] | SMILES | Mito-Safety Index (highest mito-safe dose/mt-Keima EC50) [2] |
| --- | --- | --- | --- |
| 53 |  | CC(C)(C#N)CO[C@@H]1COc2ccccc2[C@H]1Nc1ncnc2[nH]c(C3CC3)cc12 (stereo in doubt) [EP-0042976, 3-[(3S,4R)-4-[(6-cyclopropyl-7H-pyrrolo[2,3-d]pyrimidin-4-yl)amino]chroman-3-yl]oxy-2,2-dimethyl-propanenitrile] | 302.16 |
| 90 |  | CC(C)(C#N)CCC1COc2ccccc2C1Nc1ncnc2[nH]c(C3CC3)cc12 (single isomer, unassigned) [EP-0042850, 4-[trans-4-[(6-cyclopropyl-7H-pyrrolo[2,3-d]pyrimidin-4-yl)amino]chroman-3-yl]-2,2-dimethyl-butanenitrile] | 70.99 |
| 180 |  | COCCO[C@H]1COc2cc(F)ccc2[C@@H]1Nc1ncnc2[nH]c(C3CC3)cc12 [EP-0042287, 6-cyclopropyl-N-[(3R,4S)-7-fluoro-3-(2-methoxyethoxy)chroman-4-yl]-7H-pyrrolo[2,3-d]pyrimidin-4-amine] | 38.56 |
| 280 |  | FC(F)(F)c1cc2c(N[C@H]3c4ccccc4OC[C@@H]3OCC3COC3)ncnc2[nH]1 [EP-0043826, N-((3R,4S)-3-(oxetan-3-ylmethoxy)chroman-4-yl)-6-(trifluoromethyl)-7H-pyrrolo[2,3-d]pyrimidin-4-amine] | 60.4 and 60.3 |
| 123 |  | CC(C)(O)CO[C@H]1COc2ccccc2[C@@H]1Nc1ncnc2[nH]c(C3CC3)cc12 [EP-0042541, 1-[(3R,4S)-4-[(6-cyclopropyl-7H-pyrrolo[2,3-d]pyrimidin-4-yl)amino]chroman-3-yl]oxy-2-methyl-propan-2-ol] | 50.82 |
| 100 |  | COC[C@]1(C)C[C@@H](Nc2ncnc3[nH]c(C(F)(F)F)cc23)c2ccccc2O1 (single isomer, unassigned) [EP-0043980] | 73.0 |
| 30 | < 0.03 | COC(C)(C)CO[C@H]1COc2ccccc2[C@@H]1Nc1ncnc2[nH]c(C3CC3)cc12 [EP-0042538, 6-cyclopropyl-N-[(3R,4S)-3-(2-methoxy-2-methyl-propoxy)chroman-4-yl]-7H-pyrrolo[2,3-d]pyrimidin-4-amine] | 51.11 |
| 78 |  | CC(C)(C#N)CC[C@@H]1COc2ccccc2[C@H]1Nc1ncnc2[nH]c(C3CC3)cc12 (relative stereo) [EP-0042291, 4-[trans-4-[(6-cyclopropyl-7H-pyrrolo[2,3-d]pyrimidin-4-yl)amino]chroman-3-yl]-2,2-dimethyl-butanenitrile] | 64.67 |
| 356 |  | COCC[C@@H]1COc2ccccc2[C@H]1Nc1ncnc2[nH]c(C(F)(F)F)cc12 (single isomer, unassigned) [EP-0041398, N-[trans-3-(2-methoxyethyl)chroman-4-yl]-6-(trifluoromethyl)-7H-pyrrolo[2,3-d]pyrimidin-4-amine] | 43.54 |
| 119 |  | COC(C)(C)CO[C@H]1COc2ccccc2[C@@H]1Nc1ncnc2[nH]c(C(F)(F)F)cc12 [EP-0042655, N-[(3R,4S)-3-(2-methoxy-2-methyl-propoxy)chroman-4-yl]-6-(trifluoromethyl)-7H-pyrrolo[2,3-d]pyrimidin-4-amine] | 38.50 |
| 70 |  | COCCCC1COc2ccccc2C1Nc1ncnc2[nH]c(C(F)(F)F)cc12 (single isomer, unassigned) [EP-0041483, N-[3-(3-methoxypropyl)chroman-4-yl]-6-(trifluoromethyl)-7H-pyrrolo[2,3-d]pyrimidin-4-amine] | 48.05 |
| 340 |  | CC(C)CO[C@H]1COc2ccccc2[C@@H]1Nc1nccc2[nH]c(C(F)(F)F)cc12 [EP-0043866] | 32.6 |
| 95 |  | COCCCO[C@H]1COc2ccccc2[C@@H]1Nc1ncnc2[nH]c(C3CC3)cc12 [EP-0042529, 4,6-cyclopropyl-N-[(3R,4S)-3-(3-methoxypropoxy)chroman-4-yl]-7H-pyrrolo[2,3-d]pyrimidin-4-amine] | 80.20 |
